Measurements taken from PMC7699592, “Interaction between the Lentil Lipid Transfer Protein Lc-LTP2 and Its Novel Signal Ligand PI(4,5)P2” (Membranes, 2020).

What was measured:
Type in all cases: binding
[1] = target: T1, LTP from mugwort (mugwort LTP) (Artemisia vulgaris, UniProt C4MGG9); experiment: TNS fluorescent probe displacement; conditions: 4 uM LTP, 10 uM PI(4,5)P2, 3 uM TNS, pH 7.0, 25 °C
T1 construct: gene Art v 3; recombinant, overexpressed in Escherichia coli, purified; four disulfide bonds
T1 sequence (C4MGG9 24-114): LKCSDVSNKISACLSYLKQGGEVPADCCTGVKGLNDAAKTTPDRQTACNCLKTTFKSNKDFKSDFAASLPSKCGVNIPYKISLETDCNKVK

Lc-LTP2 [2] = target: T2, Lc-LTP2 (Lens culinaris, UniProt A0AT29, Y105A); experiment: TNS fluorescent probe displacement; conditions: 4 uM LTP, 10 uM PI(4,5)P2, 3 uM TNS, pH 7.0, 25 °C
T2 construct: recombinant mature protein, overexpressed in Escherichia coli, purified; four disulfide bonds
T2 sequence (A0AT29 26-118 Y105A): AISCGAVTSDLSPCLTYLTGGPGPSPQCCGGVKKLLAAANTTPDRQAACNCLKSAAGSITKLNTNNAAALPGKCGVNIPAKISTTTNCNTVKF

Lc-LTP2 [3] = target: T3, Lc-LTP2 (Lens culinaris, UniProt A0AT29, R70A/Y105A); experiment: TNS fluorescent probe displacement; conditions: 4 uM LTP, 10 uM PI(4,5)P2, 3 uM TNS, pH 7.0, 25 °C
T3 construct: recombinant mature protein, overexpressed in Escherichia coli, purified; four disulfide bonds
T3 sequence (A0AT29 26-118 R70A/Y105A): as the sequence (A0AT29 26-118 Y105A) above, with R45A counted along it

[4] = target: T4, LTP from ragweed (ragweed LTP) (Ambrosia artemisiifolia, UniProt O04004); experiment: TNS fluorescent probe displacement; conditions: 4 uM LTP, 10 uM PI(4,5)P2, 3 uM TNS, pH 7.0, 25 °C
T4 construct: recombinant, overexpressed in Escherichia coli, purified; four disulfide bonds
T4 sequence (O04004 26-118): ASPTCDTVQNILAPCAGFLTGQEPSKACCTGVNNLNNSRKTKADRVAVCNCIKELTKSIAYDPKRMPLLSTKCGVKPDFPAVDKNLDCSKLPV

Lc-LTP2 [5] = target: T5, Lc-LTP2 (Lens culinaris, UniProt A0AT29); experiment: TNS fluorescent probe displacement; conditions: 4 uM LTP, 10 uM PI(4,5)P2, 3 uM TNS, pH 7.0, 25 °C
T5 construct: recombinant mature protein, overexpressed in Escherichia coli, purified; four disulfide bonds
T5 sequence (A0AT29 26-118): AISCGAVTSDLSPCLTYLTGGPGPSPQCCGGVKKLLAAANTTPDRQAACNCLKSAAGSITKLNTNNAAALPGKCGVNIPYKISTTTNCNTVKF

[6] = target: T6, LTP from strawberry (strawberry LTP) (Fragaria x ananassa, UniProt Q8VX12); experiment: TNS fluorescent probe displacement; conditions: 4 uM LTP, 10 uM PI(4,5)P2, 3 uM TNS, pH 7.0, 25 °C
T6 construct: recombinant, overexpressed in Escherichia coli, purified; four disulfide bonds

[7] = target: T7, LTP from strawberry (strawberry LTP) (Fragaria x ananassa, UniProt Q8VX12); experiment: protein-lipid overlay on membrane lipid strips; conditions: lipid immobilised, […] per spot; PBS; anti-Lc-LTP2 antibody detection
T7 construct: gene lpt46; recombinant, overexpressed in Escherichia coli, purified; four disulfide bonds
T7 sequence (Q8VX12 27-117): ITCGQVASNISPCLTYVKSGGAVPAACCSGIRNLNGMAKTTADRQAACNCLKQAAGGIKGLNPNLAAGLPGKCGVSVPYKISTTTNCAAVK

[8] = target: T1, LTP from mugwort (mugwort LTP); experiment: protein-lipid overlay on membrane lipid strips; conditions: lipid immobilised, 100 pM per spot; PBS; anti-Lc-LTP2 antibody detection
[9] = target: T4, LTP from ragweed (ragweed LTP); experiment: protein-lipid overlay on membrane lipid strips; conditions: lipid immobilised, 100 pM per spot; PBS; anti-Lc-LTP2 antibody detection

Compound	% reduction of LTP-TNS fluorescence [1] [%]	% reduction of LTP-TNS fluorescence (Lc-LTP2 [2]) [%]	% reduction of LTP-TNS fluorescence (Lc-LTP2 [3]) [%]	% reduction of LTP-TNS fluorescence [4] [%]	% reduction of LTP-TNS fluorescence (Lc-LTP2 [5]) [%]	% reduction of LTP-TNS fluorescence [6] [%]	protein-lipid overlay on membrane lipid strips [7]	protein-lipid overlay on membrane lipid strips [8]	protein-lipid overlay on membrane lipid strips [9]
PI(4,5)P2	11	8	16	9	21	14	–	–	–
CCCCCCCCCCCCCCCC(=O)OC[C@H](COP(=O)(O)O[C@@H]1[C@H](O)[C@H](O)[C@@H](OP(=O)(O)O)[C@H](OP(=O)(O)O)[C@H]1O)OC(=O)CCCCCCCCCCCCCCC [PI(4,5)P2 diC16]	–	–	–	–	–	–	Protein-lipid overlay assays with other LTPs from the abovementioned plants led to the same results	Protein-lipid overlay assays with other LTPs from the abovementioned plants led to the same results	Protein-lipid overlay assays with other LTPs from the abovementioned plants led to the same results
